PubChem BioAssay (NCI)
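Cells were grown in 96-well plates and exposed to each compound for 48 hours at five concentrations; endpoints were interpolated linearly between bracketing concentrations, or set to the highest concentration if not reached. Abbreviation: GI50, concentration required for 50% inhibition of growth. At the TGI there is no net growth.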

Experiments:
Test in all cases: DTP human tumour cell line panel, 48 h
OVCAR-5 ovarian = tested on: OVCAR-5 ovarian
HOP-62 NSCLC = tested on: HOP-62 NSCLC
SNB-19 CNS = tested on: SNB-19 CNS
KM12 colon = tested on: KM12 colon
SK-MEL-5 melanoma = tested on: SK-MEL-5 melanoma
COLO 205 colon = tested on: COLO 205 colon
HCC-2998 colon = tested on: HCC-2998 colon
NCI-H522 lung = tested on: NCI-H522 lung
CCRF-CEM leukemia = tested on: CCRF-CEM leukemia
SNB-75 CNS = tested on: SNB-75 CNS

`CC(CN1CCN(CCOCCO)CC1)CN1c2ccccc2Sc2ccc(Cl)cc21` (stereo not drawn) was tested, and the GI50 (OVCAR-5 ovarian) was 2.6 µM, the TGI (OVCAR-5 ovarian) was 7.27 µM and the GI50 (HOP-62 NSCLC) was 3.52 µM. For the same molecule, the TGI (HOP-62 NSCLC) was 13.4 µM, the GI50 (SNB-19 CNS) was 8.14 µM and the TGI (SNB-19 CNS) was 21.8 µM. The GI50 (KM12 colon) was 2.78 µM, the TGI (KM12 colon) was 8.21 µM and the GI50 (SK-MEL-5 melanoma) was 1.69 µM. For the same molecule, the TGI (SK-MEL-5 melanoma) was 3.07 µM, the GI50 (COLO 205 colon) was 1.69 µM and the TGI (COLO 205 colon) was 3.18 µM. The GI50 (HCC-2998 colon) was 1.91 µM, the TGI (HCC-2998 colon) was 3.51 µM and the GI50 (NCI-H522 lung) was 1.71 µM. For the same molecule, the TGI (NCI-H522 lung) was 3.36 µM, the GI50 (CCRF-CEM leukemia) was 2.68 µM and the TGI (CCRF-CEM leukemia) was 8.74 µM.

For `O=C(/C(=C/c1ccc([N+](=O)[O-])cc1)c1ccccc1)c1ccccc1`, the GI50 (OVCAR-5 ovarian) was 4.91 µM, the TGI (OVCAR-5 ovarian) was over 100 µM and the GI50 (HOP-62 NSCLC) was 2.78 µM. For the same molecule, the TGI (HOP-62 NSCLC) was 6.12 µM, the GI50 (SNB-19 CNS) was 3.9 µM and the TGI (SNB-19 CNS) was over 100 µM. It also gave a GI50 (KM12 colon) of 3.06 µM, a TGI (KM12 colon) of 9.52 µM and a GI50 (SNB-75 CNS) of 2.11 µM. For the same molecule, the TGI (SNB-75 CNS) was 7.32 µM, the GI50 (COLO 205 colon) was 3.81 µM and the TGI (COLO 205 colon) was 18.2 µM. The GI50 (HCC-2998 colon) was 2.38 µM, the TGI (HCC-2998 colon) was 5.24 µM and the GI50 (CCRF-CEM leukemia) was 2.25 µM. It also gave a TGI (CCRF-CEM leukemia) of over 100 µM.

Molecule `CCC1CN2CCc3cc(OC)c(OC)cc3C2CC1CC1c2cc(OC)c(OC)cc2CCN1C(=O)C1CCCN1C(=O)OCc1ccccc1` (stereo not drawn) has a TGI (OVCAR-5 ovarian) of 34.2 µM, a TGI (HOP-62 NSCLC) of 31.8 µM and a TGI (SNB-19 CNS) of 73.5 µM. The TGI (KM12 colon) was 30.1 µM, the TGI (SK-MEL-5 melanoma) was 28.8 µM and the TGI (SNB-75 CNS) was 28.3 µM. The TGI (HCC-2998 colon) was 30 µM.

Molecule `O=C1c2ccccc2-c2c1c1ccc([N+](=O)[O-])cc1c(=O)n2CCCBr` has a GI50 (OVCAR-5 ovarian) of over 100 µM, a TGI (OVCAR-5 ovarian) of over 100 µM and a GI50 (SNB-19 CNS) of over 100 µM. It also gave a TGI (SNB-19 CNS) of over 100 µM, a GI50 (KM12 colon) of over 100 µM and a TGI (KM12 colon) of over 100 µM. For the same molecule, the GI50 (SNB-75 CNS) was over 100 µM, the TGI (SNB-75 CNS) was over 100 µM and the GI50 (COLO 205 colon) was over 100 µM. It also gave a TGI (COLO 205 colon) of over 100 µM, a GI50 (HCC-2998 colon) of over 100 µM and a TGI (HCC-2998 colon) of over 100 µM. The GI50 (NCI-H522 lung) was 96.8 µM and the TGI (NCI-H522 lung) was over 100 µM.

With `CCN(C(=O)N1CCN(c2cc3c(cc2F)c(=O)c(C(=O)O)cn3C2CC2)CC1)c1nc(-c2ccc(C)cc2)cs1` the GI50 (OVCAR-5 ovarian) was 0.68 µM, the TGI (OVCAR-5 ovarian) was over 100 µM and the GI50 (HOP-62 NSCLC) was 1.41 µM. For the same molecule, the TGI (HOP-62 NSCLC) was over 100 µM, the GI50 (SNB-19 CNS) was 1.03 µM and the TGI (SNB-19 CNS) was over 45.4 µM. It also gave a GI50 (KM12 colon) of 0.41 µM, a TGI (KM12 colon) of over 100 µM and a GI50 (SK-MEL-5 melanoma) of 0.858 µM. For the same molecule, the TGI (SK-MEL-5 melanoma) was over 100 µM, the GI50 (SNB-75 CNS) was 1.09 µM and the TGI (SNB-75 CNS) was 5.08 µM. For the same molecule, the GI50 (HCC-2998 colon) was 0.694 µM, the TGI (HCC-2998 colon) was over 100 µM and the GI50 (NCI-H522 lung) was 1.02 µM. It also gave a GI50 (CCRF-CEM leukemia) of 0.356 µM and a TGI (CCRF-CEM leukemia) of over 100 µM.

Molecule `CCCCNCC(=O)O[C@]1(CC)C(=O)OCc2c1cc1n(c2=O)Cc2cc3ccccc3nc2-1` has a TGI (OVCAR-5 ovarian) of 5.95 µM, a TGI (SNB-19 CNS) of over 61.1 µM and a TGI (KM12 colon) of 6.55 µM. For the same molecule, the TGI (SK-MEL-5 melanoma) was 1.27 µM, the TGI (SNB-75 CNS) was 3.44 µM and the TGI (COLO 205 colon) was 17.5 µM. It also gave a TGI (HCC-2998 colon) of 8.76 µM, a TGI (NCI-H522 lung) of 4.82 µM and a TGI (CCRF-CEM leukemia) of 0.723 µM.

`C=CCOC1OC(CO[Si](C)(C)C(C)(C)C)C(OCc2ccccc2)C(OCc2ccccc2)C1OCc1ccccc1` (stereo not drawn) gave a TGI (OVCAR-5 ovarian) of over 100 µM, a TGI (HOP-62 NSCLC) of 48.3 µM and a TGI (SNB-19 CNS) of 60.3 µM. The TGI (KM12 colon) was over 100 µM, the TGI (SK-MEL-5 melanoma) was over 100 µM and the TGI (SNB-75 CNS) was 51.1 µM. It also gave a TGI (COLO 205 colon) of over 100 µM, a TGI (NCI-H522 lung) of over 100 µM and a TGI (CCRF-CEM leukemia) of over 100 µM.

`O=C(O)C1(P(=O)(O)O)CC1` was tested, and the TGI (HOP-62 NSCLC) was over 100 µM, the TGI (SNB-19 CNS) was over 100 µM and the TGI (KM12 colon) was over 100 µM. It also gave a TGI (SK-MEL-5 melanoma) of over 100 µM, a TGI (SNB-75 CNS) of over 100 µM and a TGI (COLO 205 colon) of over 100 µM. It also gave a TGI (HCC-2998 colon) of over 100 µM, a TGI (NCI-H522 lung) of over 100 µM and a TGI (CCRF-CEM leukemia) of over 100 µM.

Work on `O=C1C(=O)N(c2ccc(Cl)c(Cl)c2)C(=O)C(=O)C1c1nc2ccccc2s1` yielded a TGI (OVCAR-5 ovarian) of over 100 µM, a TGI (HOP-62 NSCLC) of over 100 µM and a TGI (SNB-19 CNS) of over 100 µM. The TGI (SK-MEL-5 melanoma) was over 100 µM, the TGI (SNB-75 CNS) was over 100 µM and the TGI (COLO 205 colon) was over 100 µM. For the same molecule, the TGI (HCC-2998 colon) was over 100 µM, the TGI (NCI-H522 lung) was over 100 µM and the TGI (CCRF-CEM leukemia) was over 100 µM.
